The record followed here is patent US9790378B2, “Vapor source using solutions of precursors in terpenes” (President and Fellows of Harvard College, priority 2010, dated 2017).

How the values of the series were obtained:
[drawing 8] was dissolved in alloocimene.
Examples 1 and 2 were repeated except that dodecane was used as a solvent in place of alloocimene or farnesenes.
[drawing 9] is dissolved in mixed isomers of farnesene.
[drawing 10] is dissolved in mixed isomers of farnesenes.
[drawing 11] is dissolved in mixed isomers of farnesenes.
[drawing 12] is dissolved in alloocimene.
[drawing 13] is dissolved in mixed isomers of farnesene.
Take “tris(N,N′-diisopropylformamidinato)lanthanum(III)”: the “solubility (in words)” value is “high”.

As for “bis(N,N′-diisopropylpentamidinato)manganese(II)”, the “solubility (in words)” value is “high”.

For the substance “tris(N,N′-diisopropylacetamidinato)yttrium(III)”, the “solubility (in words)” value is given as “high”.

With “bis(N,N′-diisopropylacetamidinato)cobalt(II)”, the “solubility (in words)” value is “high”.

“copper(I) (N,N′-di-sec-butylacetamidinate)”: the “solubility (in words)” value was “high”.
